The source of these data is US20240325451A1, “METHODS OF INDUCING ORGAN TRANSPLANTATION IMMUNE TOLERANCE AND ASSOCIATED COMPOSITIONS AND METHODS” (CITY OF HOPE, priority 2023, published 2024).

The subject of this assay is donor-type and host-type T, B and myeloid cells. Briefly: Mixed chimerism status by flow cytometry. The note with it: PB and SPL of Foxp3DTR MCs.

For the substance diphtheria toxin [DT], the “MC status before and after treatment” value is given as “did not have significant impact”.
